± gives the expanded uncertainty stated by the source.
Experiments:
[1] = Liquid; for electrical conductivity: Alternating current cell with electrodes; for viscosity: Capillary tube (Ostwald / Ubbelohde) method; for speed of sound: Linear variable-path acoustic interferometer; for mass density: Vibrating tube method
[2] = refractive index (Na D-line) (dimensionless); details: 101.33 kPa, Liquid, Standard Abbe refractometry

CC(=O)[O-].CCCCn1cc[n+](C)c1 [1-butyl-3-methylimidazolium acetate]
[1], 101.33 kPa
Details	electrical conductivity [S/m]	mass density [kg/m3]	speed of sound [m/s]	viscosity [mPa·s]
283.15 K	0.0131 ± 0.0003	1061.85 ± 0.65	1700 ± 3	1927 ± 130
288.15 K	0.0215 ± 0.0004	1058.77 ± 0.65	1683 ± 3	1165 ± 74
293.15 K	0.0331 ± 0.0007	1055.69 ± 0.65	1666 ± 3	736.6 ± 43
298.15 K	0.049 ± 0.001	1052.63 ± 0.64	1650 ± 3	485.1 ± 26
303.15 K	0.0699 ± 0.0014	1049.61 ± 0.64	1635 ± 3	330.9 ± 17
308.15 K	0.0968 ± 0.0019	1046.6 ± 0.64	1621 ± 3	233 ± 11
313.15 K	0.131 ± 0.003	1043.59 ± 0.63	1608 ± 3	168.7 ± 7.6
318.15 K	0.172 ± 0.003	1040.59 ± 0.63	1595 ± 3	125.2 ± 5.4
323.15 K	0.221 ± 0.004	1037.58 ± 0.63	1582 ± 3	95.05 ± 4
328.15 K	–	1034.58 ± 0.63	1570 ± 3	73.63 ± 3
333.15 K	–	1031.59 ± 0.62	1558 ± 3	58.09 ± 2.4
338.15 K	–	1028.61 ± 0.62	1546 ± 3	46.57 ± 1.9
343.15 K	–	1025.64 ± 0.62	1534 ± 3	37.91 ± 1.6

[2]
Details	refractive index
283.15 K	1.49925 ± 0.00044
288.15 K	1.49781 ± 0.00044
293.15 K	1.49634 ± 0.00044
298.15 K	1.49488 ± 0.00044
303.15 K	1.49342 ± 0.00044
308.15 K	1.49197 ± 0.00044
313.15 K	1.49053 ± 0.00044
318.15 K	1.48909 ± 0.00044
323.15 K	1.48765 ± 0.00044
328.15 K	1.48619 ± 0.00044
333.15 K	1.48477 ± 0.00044
338.15 K	1.48332 ± 0.00044
343.15 K	1.48189 ± 0.00044

CC(=O)[O-].CCn1cc[n+](C)c1 [1-ethyl-3-methylimidazolium acetate]
[1], 101.33 kPa
Details	electrical conductivity [S/m]	mass density [kg/m3]	speed of sound [m/s]	viscosity [mPa·s]
283.15 K	0.114 ± 0.002	1107.56 ± 0.47	1778 ± 3	388.6 ± 20
288.15 K	0.162 ± 0.003	1104.47 ± 0.47	1764 ± 3	258.4 ± 12
293.15 K	0.222 ± 0.004	1101.36 ± 0.47	1750 ± 3	179.1 ± 8.1
298.15 K	0.296 ± 0.006	1098.26 ± 0.47	1737 ± 3	128.5 ± 5.5
303.15 K	0.382 ± 0.008	1095.16 ± 0.47	1725 ± 3	95.23 ± 4
308.15 K	0.48 ± 0.01	1092.07 ± 0.46	1712 ± 3	72.42 ± 2.9
313.15 K	0.594 ± 0.012	1089 ± 0.46	1700 ± 3	56.38 ± 2.3
318.15 K	0.827 ± 0.017	1085.94 ± 0.46	1687 ± 3	44.79 ± 1.8
323.15 K	0.986 ± 0.02	1082.9 ± 0.46	1675 ± 3	36.23 ± 1.5
328.15 K	–	1079.87 ± 0.46	1664 ± 3	29.78 ± 1.2
333.15 K	–	1076.84 ± 0.46	1652 ± 3	24.82 ± 1
338.15 K	–	1073.83 ± 0.46	1640 ± 3	20.95 ± 0.85
343.15 K	–	1070.83 ± 0.46	1628 ± 3	17.88 ± 0.72

[2]
Details	refractive index
283.15 K	1.50423 ± 0.00036
288.15 K	1.50283 ± 0.00036
293.15 K	1.50144 ± 0.00036
298.15 K	1.50001 ± 0.00036
303.15 K	1.49861 ± 0.00036
308.15 K	1.49718 ± 0.00036
313.15 K	1.49577 ± 0.00036
318.15 K	1.49436 ± 0.00036
323.15 K	1.49295 ± 0.00036
328.15 K	1.49154 ± 0.00036
333.15 K	1.49015 ± 0.00036
338.15 K	1.48876 ± 0.00036
343.15 K	1.48734 ± 0.00036

O=c1cc[nH]c(=O)[nH]1 [2,4(1H,3H)-pyrimidinedione]
[1], 101 kPa
Details	electrical conductivity [S/m]	mass density [kg/m3]	viscosity [mPa·s]
298.15 K	0.296 ± 0.006	1097.6 ± 0.3	128.5 ± 5.5
303.15 K	0.382 ± 0.008	1094.5 ± 0.3	95.23 ± 4
308.15 K	0.48 ± 0.01	1091.4 ± 0.3	72.42 ± 2.9
313.15 K	0.594 ± 0.012	1088.4 ± 0.3	56.38 ± 2.3
318.15 K	0.827 ± 0.017	1085.3 ± 0.3	44.79 ± 1.8
323.15 K	0.986 ± 0.02	1082.3 ± 0.3	36.23 ± 1.5
328.15 K	–	1079.3 ± 0.3	29.78 ± 1.2
333.15 K	–	1076.2 ± 0.3	24.82 ± 1
338.15 K	–	1073.3 ± 0.3	20.95 ± 0.85
343.15 K	–	1070.3 ± 0.3	17.88 ± 0.72

Nc1[nH]cnc2ncnc1-2 [6-amino-1H-purine]
[1], 101 kPa
Details	electrical conductivity [S/m]	mass density [kg/m3]	viscosity [mPa·s]
298.15 K	0.296 ± 0.006	1097.6 ± 0.3	128.5 ± 5.5
303.15 K	0.382 ± 0.008	1094.5 ± 0.3	95.23 ± 4
308.15 K	0.48 ± 0.01	1091.4 ± 0.3	72.42 ± 2.9
313.15 K	0.594 ± 0.012	1088.4 ± 0.3	56.38 ± 2.3
318.15 K	0.827 ± 0.017	1085.3 ± 0.3	44.79 ± 1.8
323.15 K	0.986 ± 0.02	1082.3 ± 0.3	36.23 ± 1.5
328.15 K	–	1079.3 ± 0.3	29.78 ± 1.2
333.15 K	–	1076.2 ± 0.3	24.82 ± 1
338.15 K	–	1073.3 ± 0.3	20.95 ± 0.85
343.15 K	–	1070.3 ± 0.3	17.88 ± 0.72
